Results taken from patent US10028975B2, “Methods for treating ischemia-reperfusion injury” (Beth Israel Deaconess Medical Center, Inc., priority 2010, dated 2018).
One block for each compound: values may come before it.

Columns and labels:
[1] = system: complement component 3 protein (C3) deposition; assay: C3 deposition in intestine and lung by IHC and IF; assay type: in vivo, mouse; conditions: I/R mice treated with Syk inhibitor
Text: (§1) In order to perform immunohistochemistry (IHC) staining, formalin-fixed paraffin sections of intestine and lung were subjected to rehydration and antigen retrieval using a standard protocol. For IHC studies, the following reagents were used: rabbit anti-mouse Syk (N-19) (Santa Cruz, Calif.), rabbit anti-mouse p-Syk (phospho Y323) (Abeam, Inc.), and rabbit anti-mouse C3 (B-9) (Santa Cruz, Calif.).
(§2) For immunofluorescence (IF) staining, formalin-fixed paraffin-embedded sections were blocked with 10% BSA-PBS at room temperature for 1 hour and incubated with FITC-labeled primary or secondary antibodies at room temperature for 1 hour. The slides were washed, and coverslips were mounted with Dako Fluorescent mounting medium and analyzed by confocal microscopy (Nikon Eclipse Ti, Nikon Instruments, Melville, N.Y.). FITC-labeled goat anti-mouse IgG (Santa Cruz, Calif., sc2010), FITC-labeled rat anti-mouse C3 (11H9) (Santa Cruz, Calif., sc-58926), FITC-labeled goat anti-mouse IgM (Southern Biotech, 1021-02), and FITC-labeled rat anti-mouse Ly-6G and LY-6C (Clone R6B-8C5) (BD Pharmingen) were the antibodies used in these studies.
It has been reported that I/R activates the complement system, as indicated by C3 deposition on the intestine (Williams et al., supra). […]

[2] = system: C57BL/6J mice subjected to mesenteric I/R (intestine); assay: Intestinal mucosal injury scoring (H&E) after mesenteric ischemia-reperfusion; assay type: in vivo, mouse; conditions: mean±SEM; for intestinal injury score (mucosal injury score): I/R mice, 30 min ischemia, 3 h reperfusion, scale 0-6
Text: (§3) Mice were randomly assigned to the following experimental groups: (a) mouse chow+sham procedures, (b) mouse chow+I/R procedures, (c) control chow+sham procedures, (d) control chow+I/R procedures, (e) R788 (3 g/kg)+sham procedures, (f) R788 (3 g/kg)+I/R procedures, and (g) R788 (5 g/kg)+I/R procedures […].
(§4) Syk inhibitor R788 was provided by Rigel Pharmaceuticals (South San Francisco, Calif.). Mice were fed food containing R788 (3 g/kg of chow, n=6 or 5 g/kg of chow, n=3), control chow (n=6), or regular chow (n=6). Food was prepared by Research Diets, Inc. (New Brunswick, N.J.). C57BL/6J mice were fed the R788-containing chow ad libitum for 6 days prior to experimentation in order to determine the effect of R788 on I/R injury.
Animals underwent I/R as had been described previously (Chiu et al., Arch Surg. 101: 478-483, 1970 and Fleming et al., J Immunol. 169: 2126-2133, 2002). Briefly, we performed a midline laparotomy before a 30-minute equilibration period. […] A small non-traumatic microvascular clip delivering approximately 85 grams of pressure was then applied for 30 minutes. The clip was removed after this ischemia phase, and the intestines were allowed to reperfuse for 3 hours. Sham-operated mice underwent the above-described surgical intervention without artery occlusion. The laparotomy incisions were sutured with 4.0 SOFSILK™, the mice resuscitated with 1.0 mL pre-warmed sterile phosphate-buffered saline (PBS) subcutaneously, and monitored during the reperfusion period. […]
For histological analysis, 20-cm segments of small intestine specimens were fixed in 10% buffered formalin phosphate immediately after euthanasia. […] To summarize, a normal villus was assigned a score of 0; villi with tip distortion were scored as 1; villi without goblet cells and with Guggenheims' spaces were scored as 2; villi with patchy disruption of the epithelial cells were scored as 3; villi with exposed but intact lamina propria and sloughing of epithelial cell were scored as 4; villi with exuding lamina propria were scored as 5; and villi with hemorrhage or denudation were scored as 6. […]

[3] = system: C57BL/6J mice subjected to mesenteric I/R (lung); assay: Remote lung injury scoring (H&E) after mesenteric ischemia-reperfusion; assay type: in vivo, mouse; conditions: mean±SEM; for total lung injury score: I/R mice, 3 h reperfusion, scale 0-18
Text: as §3, §4
Animals underwent I/R as had been described previously (Chiu et al., Arch Surg. 101: 478-483, 1970 and Fleming et al., J Immunol. 169: 2126-2133, 2002). Briefly, we performed a midline laparotomy before a 30-minute equilibration period. […] The laparotomy incisions were sutured with 4.0 SOFSILK™, the mice resuscitated with 1.0 mL pre-warmed sterile phosphate-buffered saline (PBS) subcutaneously, and monitored during the reperfusion period. […]
Alveolar and periluminal injury scores in each lung section were calculated based on Cooke's method (Cooke et al., Blood 8: 3230-3239, 1996). For each lung section, we examined 10-20 fields at high power field magnification (400×) and scored for alveolar infiltration on a 3-tiered scale. The calculation of alveolar scores was as follows: when no infiltrate was present, a score of 0 was given; when the infiltrate could be visualized easily only at 400×, a score of 1 was assigned; when infiltrates were readily visible, a score of 2 was assigned; and the score for consolidation was 3. Similarly, each section was scored for periluminal damage (airway or blood vessel) at 100×. […] Based on the overall involvement of the section, a severity score was calculated: the severity score for 0-25% involvement was 1; a severity score of 2 was assigned for 25-50% involvement; and the severity score for >50% involvement was 3. […]

IgM deposition = assay: IgM staining in intestine and lung by immunofluorescence; assay type: in vivo, mouse; conditions: I/R intestinal and lung samples, both tissues
Protocol: as §2
Reperfusion after ischemia induced alteration of the endothelial membrane and allows neoantigen expression. Circulating natural IgM antibodies bind to these antigens and may trigger complement-mediated injury (Williams et al., J Applied Physiol. 86: 938-942, 1999). Therefore, we performed IgM staining by IF, as described above. There was increased IgM staining in I/R intestinal and lung samples when compared to the sham tissues. […] Unlike the differences detected for natural IgM staining, we were only able to detect minimal IgG staining in all groups (data not shown).

[4] = biological target: T1, phosphorylated Syk (p-Syk) (Mus musculus, UniProt P48025); assay: p-Syk staining in intestine and lung by IHC and IF; assay type: in vivo; conditions: I/R mice group, Syk inhibitor treatment, 3-hour reperfusion
T1 construct: formalin-fixed paraffin sections of intestine and lung were subjected to rehydration and antigen retrieval; from tissue; host or cells: intestine and lung of C57BL/6J mice
T1 sequence (P48025 whole entry, the tested form may be a part): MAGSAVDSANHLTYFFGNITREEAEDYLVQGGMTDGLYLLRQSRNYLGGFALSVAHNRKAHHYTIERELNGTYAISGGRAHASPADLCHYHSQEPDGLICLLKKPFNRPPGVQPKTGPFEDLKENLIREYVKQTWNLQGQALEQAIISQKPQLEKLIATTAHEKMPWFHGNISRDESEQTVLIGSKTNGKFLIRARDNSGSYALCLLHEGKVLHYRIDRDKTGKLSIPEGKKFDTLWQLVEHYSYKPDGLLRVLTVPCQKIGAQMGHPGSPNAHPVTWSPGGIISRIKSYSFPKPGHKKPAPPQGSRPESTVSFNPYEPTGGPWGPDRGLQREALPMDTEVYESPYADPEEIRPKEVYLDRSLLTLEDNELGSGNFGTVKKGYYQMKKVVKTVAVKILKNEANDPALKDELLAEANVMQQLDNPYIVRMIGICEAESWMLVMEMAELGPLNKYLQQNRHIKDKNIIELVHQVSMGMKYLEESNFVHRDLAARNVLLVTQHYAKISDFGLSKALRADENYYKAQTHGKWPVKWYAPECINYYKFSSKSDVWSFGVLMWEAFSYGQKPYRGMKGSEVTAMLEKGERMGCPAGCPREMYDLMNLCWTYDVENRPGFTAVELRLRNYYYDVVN
Text: as §1, §2
Because the Syk inhibitor suppresses the expression of phosphorylated Syk (p-Syk), the active form of Syk, we performed p-Syk staining by using IHC and IF. We observed staining in I/R group mice. […] After a 3-hour reperfusion, we detected only slight p-Syk staining.

Syk [5] = biological target: T2, Syk (Mus musculus, UniProt P48025); assay: Syk staining in intestine and lung by immunohistochemistry; assay type: in vivo; conditions: pre-treatment with Syk inhibitor, IHC
T2 construct: formalin-fixed paraffin sections of intestine and lung were subjected to rehydration and antigen retrieval; from tissue; host or cells: intestine and lung of C57BL/6J mice
T2 sequence (P48025 whole entry): as the sequence (P48025 whole entry, the tested form may be a part) above
Protocol: as §1
Syk expression in the intestine and lung were evaluated by IHC. Syk staining in intestines and lungs were more prominent in I/R groups than in sham-operated groups.

neutrophil infiltration = assay: Neutrophil infiltration (GR-1 staining) in intestine and lung; assay type: in vivo, mouse
Protocol: as §2
Therefore, we evaluated the presence of neutrophils in the intestine and lung after sham and I/R procedures in mice treated with Syk inhibitor. Mice subjected to I/R had more prominent GR-1 staining within the intestinal tissue after 3-hour reperfusion when compared to the sham-operated mice group.

Syk [6] = assay: Syk expression by Western blot in T cells transfected with Syk siRNA; assay type: cell-based; conditions: T cells electroporated with siRNA at 0.5, 0.7, 0.9, 1.5 and 2 μM per million, approximately 72 hours
Protocol: Different concentrations (0.5, 0.7, 0.9, 1.5, and 2 μM per million) of T cells were transfected by electroporation using Amexa Nucleofector solution. Briefly, a total of 5×10^6 T cells were re-suspended in 100 μl Nucleofector solution (Lonza Walkerrsville Inc.; Walkersville, Md.). The desired amount of Syk siRNA was mixed in with the T cell/nucleofector suspension and electrporated. The transfected cells were plated in RPMI-1640 medium without any antibiotic and incubated for approximately 72 hours. After proper incubation, transfected T cells were lysed in RIPA buffer, and Western blotting was performed with an antibody against total Syk (Clone 4D10; Santa Cruz Biotechnology, Inc.; Santa Cruz, Calif.).

[7] = sham-operated mice, Syk inhibitor (R788 3 g/kg chow)

p-Syk staining in the lung and intestine [4]: eliminated p-Syk staining
Syk staining in either the intestine or the lung (Syk [5]): did not cause any changes
Compound: COc1cc(Nc2ncc(F)c(Nc3ccc4c(n3)N(COP(=O)(O)O)C(=O)C(C)(C)O4)n2)cc(OC)c1OC [R788]
C3 staining in the intestinal mucosa ([1]; intestine): attenuated C3 staining
C3 deposition in the lungs ([1]; lung): limited C3 deposition
intestinal injury score (mucosal injury score) ([2]; 3 g/kg R788 in chow for 6 days): 0.58±0.08
intestinal injury score (mucosal injury score) ([2]; 5 g/kg R788 in chow for 6 days): 0.92±0.14
intestinal injury score [2, 7]: 0.42±+0.33
total lung injury score ([3]; 3 g/kg R788 in chow for 6 days): 1.36±0.18
total lung injury score ([3]; 5 g/kg R788 in chow for 6 days): 1.1±0.46
average pulmonary damage score [3, 7]: 1.03±0.26
IgM deposition (immunofluorescence staining) (IgM deposition): reduced IgM deposition
I/R-induced neutrophil infiltration (GR-1 staining) (neutrophil infiltration; intestinal tissue, 3-hour reperfusion): prevented I/R-induced neutrophil infiltration
neutrophil infiltration in the lung tissues (neutrophil infiltration; lung tissue, I/R mice): decreased infiltration

Compound: SEQ ID NOs: 1 and 2: Syk-specific siRNA pair: sense GGAUAAGAACAUCAUAGAAtt, antisense UUCUAUGAUGUUCUUAUCCtt (sense GGAUAAGAACAUCAUAGAATT; antisense UUCUAUGAUGUUCUUAUCCTT; chemistry not given here)
Syk expression (Western blot) (Syk [6]): can be inhibited

Compound: SEQ ID NOs: 3 and 4: Syk-specific siRNA pair: sense CGCUCUUAAAGAUGAGUUAtt, antisense UAACUCAUCUUUAAGAGCGgg (sense CGCUCUUAAAGAUGAGUUATT; antisense UAACUCAUCUUUAAGAGCGGG; chemistry not given here)
Syk expression (Western blot) (Syk [6]): can be inhibited

Compound: SEQ ID NOs: 5 and 6: Syk-specific siRNA pair: sense GCACUAUCGCAUCGACAAAtt, antisense UUUGUCGAUGCGAUAGUGCag (sense GCACUAUCGCAUCGACAAATT; antisense UUUGUCGAUGCGAUAGUGCAG; chemistry not given here)
Syk expression (Western blot) (Syk [6]): can be inhibited
